{"source": "patent US20250313849A1", "about": "“OPTOGENETIC INDUCTION OF MEMBRANELESS ORGANELLES” (UNIVERSITY OF PITTSBURGH-OF THE COMMONWEALTH SYSTEM OF …, priority 2017, published 2025)", "type_in_all_cases": "cell-based", "key": {"[1]": {"system": "endogenous stress granule formation", "assay": "NaAsO2 induced endogenous stress granule formation in cells expressing G3BP1-NcVVDY50W, inhibitor pre-treatment", "settings": "NaAsO2 0.5 mM, 30 min; GSK2606414 added 1 hour before, cycloheximide 1 and a half hours before", "procedure": "(§1) FIGS. 22A-22B. […] When endogenous stress granule formation is induced with NaAsO2 (0.5 mM, 30 min treatment), the G3BP1-NcVVDY50W forms stress granules that stain positive for key markers TIAR and eIF4G. When GSK2606414, a PERK kinase inhibitor, is added 1 hour before NaAsO2 treatment, endogenous stress granule formation is attenuated (FIG. 22A). When GSK2606414 is added 1 hour before blue light stimulation, there is no change in stress granule formation (FIG. 22B).\n(§2) FIGS. 23A-23B. […] When endogenous stress granule formation is induced with NaAsO2 (0.5 mM, 30 min treatment), the G3BP1-NcVVDY50W forms stress granules that stain positive for the key marker eIF4G. When cycloheximide, a translational inhibitor, is added 1 and a half hours before NaAsO2 treatment, endogenous stress granule formation is attenuated (FIG. 23A)."}, "[2]": {"system": "optogenetically induced stress granule formation", "assay": "Blue light (optogenetically) induced stress granule formation, inhibitor pre-treatment", "settings": "blue light stimulation; GSK2606414 added 1 hour before, cycloheximide 1 and a half hours before", "procedure": "as §1, §2\nThese light induced stress granules colocalize with key stress granule components, including Ataxin-2, TIAR, G3BP, eIF4G, eIF3H, RPS3, RPS6, TDP-43, FUS mRNA, and PABPC1 (FIGS. 2-9, 12, 13, 18, 20, 22, 23, 24, 25). Furthermore, the colocalization with mRNA (FIGS. 12 and 13) indicates the light induced stress granules are likely inhibiting mRNA translation. Note that the light induced stress granules appear identical to naturally occurring stress granules induced by heat shock treatment for 30 minutes at 42° C. […]"}, "HEK293 cells [3]": {"system": "HEK293 cells", "assay": "Longitudinal live imaging of light induced stress granule dynamics", "settings": "for dynamics / liquid-like behaviour of light induced stress granules: blue light on/off or chronic", "procedure": "FIG. 15. […] NcVVDY50W-G3BP1 was expressed in HEK293 cells. […] NcVVDY50W-G3BP1 expressing HEK293 cells were longitudinally imaged every 30 seconds and exposed to blue light in between each image for 30 minutes. The light was then removed and cells were imaged every 30 seconds without light in between each image to study the rate of formation and dissociation of the light induced stress granules.\nFIGS. 17A-17B. […] FIG. 17A) NcVVDY50W-G3BP1 was expressed in HEK293 cells. Stress granule formation can be temporally controlled with light stimulation at different voltages. FIGS. 17B) NcVVDY50W-G3BP1 expressing HEK293 cells were longitudinally imaged every 30 seconds and exposed to different voltages (1.0V, or 5.0V, or 10.0V) of blue light in between each image for 30 minutes, over a time-course of 6 hours. The light was then removed and cells were imaged every 30 seconds without light in between each image to study the rate of formation of the light induced stress granules.\nFIGS. 18A-18E. […] NcVVDY50W-G3BP1 was expressed in HEK293 cells. […] Light paradigms were developed to chronically form stress granules with light for up to 18 hours. The light induced stress granules are positive for both key markers such as PABPC1 and sequester mRNA throughout the time course, indicating they are functional. […] No previous study has been able to induce stress granule formation for more than 2-3 hours as the cells die from the treatment to induce stress granules. Thus, these are the first studies to create chronic stress granules for over 2-3 hours.\n(§3) FIGS. 24A-24E. Replacing the G3BP1 NTF2 domain, which is required for G3BP1 self-oligomerization (optoSG), with oligomerizing photoreceptors, is sufficient to initiate the formation of optogenetic stress granules. FIG. 24A) Schematics of an additional approach to seed optoStress Granules (optoSGs) employing truncated G3BP1 protein and replacing the NTF2 oligomerizing domain with a photoreceptor with the capacity to oligomerize (in this instance Cry2-PHR, but also works with chronic stimulation of dimerizing photoreceptor). FIG. 24B) HEK cells expressing Cry2 PHR-[…]NTF-G3BP1 were exposed to blue light LED stimulation for 30 minutes to induce the formation of optoSGs.\nFIGS. 25A-25C. OptoStress Granules (optoSGs) (Cry2-delta NTF-G3BP1) display liquid-like properties of membraneless organelles and colocalize with translation initiation factors and mRNA."}, "HEK293 cells [4]": {"system": "HEK293 cells", "assay": "Blue light induced stress granules: staining for stress granule markers and mRNA", "settings": "blue light stimulation", "excerpt": "FIGS. 2A-2B. Blue light induced stress granules using a NcVVDY50W-G3BP1 protein arrangement. […] A DNA arrangement that generates the NcVVDY50W-G3BP1 was developed and expressed in HEK293 cells. Under normal conditions, the NcVVDY50W-G3BP1 remains diffuse in the cytoplasm. When endogenous stress granule formation is induced with heat shock, the NcVVDY50W-G3BP1 forms stress granules that stain positive for key markers including Ataxin-2 and TIAR.\nFIG. 5. […] Under normal conditions, G3BP1-NcVVDY50W remains diffuse in the cytoplasm. When endogenous stress granule formation is induced with NaAsO2 (0.5 mM, 30 min treatment), the G3BP1-NcVVDY50W forms stress granules that stain positive for key markers TDP-43 and eIF4G. […] As an example of this technology, DNA arrangements were developed that generated G3BP1-NcVVDY50W, and expressed in HEK293 cells. Under normal conditions, the G3BP1-NcVVDY50W remains diffuse in the cytoplasm. When endogenous stress granule formation is induced with sodium arsenite, the G3BP1-NcVVDY50W forms stress granules that probe positive for key markers, including TDP-43 and eIF4G. […] Inserts are 3D images of stress granules indicated by arrows.\nWhile stress granule dynamics are shown to be altered in these diseases, the true contributions of stress granules to disease pathobiology is unknown since the only current method to form these organelles is to introduce an extracellular stressor (e.g. heat stress at 43° C., exposure to sodium arsenite) which is toxic to cells and ultimately kills the cells being studied. The longest studies of stress granules to date are only on the order of a few hours and so, the importance of these organelles in the initiation of neurodegeneration or cancer cannot be assessed. Therefore, a method to control stress granule formation was developed using light, without the need for any extracellular stressors. To achieve this, the DNA encoding specific photoreceptor protein domains that self-bind with blue light exposure were linked to the DNA of a key protein required for the formation of stress granules, G3BP1 or TIA1. These arrangements were then expressed in HEK293 cells and were tested for their ability to form functional stress granules with various blue light treatment paradigms. It was shown that the LOV photoreceptor domain, from the Vivid protein of N. crassa, which is known to dimerize with blue light exposure, when fused to G3BP1 and exposed to 15-1080 min of 465 nm light at 0.1-1.0 mW/cm2 initiates the formation of a core stress granule structure consisting of the photoreceptors fused to G3BP1 that recruits additional G3BP1 and accessory proteins that comprise stress granules and allow for their maturation. This likely involved the liquid-liquid phase separation (LLPS) and dimerization and oligomerization of G3BP1 (concept represented in FIG. 1)."}, "stress granules": {"system": "stress granules", "assay": "Cellular occurrence and structural characteristics of stress granules", "settings": "NaAsO2 0.5 mM, 30 min; cells expressing G3BP1-NcVVDY50W; Ataxin-2 positive", "procedure": "FIGS. 11A-11D. […] Under normal conditions, G3BP1-NcVVDY50W remains diffuse in the cytoplasm. When endogenous stress granule formation is induced with NaAsO2 (0.5 mM, 30 min treatment), the G3BP1-NcVVDY50W forms stress granules that stain positive for the key marker Ataxin-2, and occur in the cell 11 times on average (FIG. 11A). They also have a defined shape that gives them a defined area (FIG. 11B), diameter (FIG. 11C) and circularity (FIG. 11D)."}, "protein synthesis": {"system": "protein synthesis", "assay": "De novo protein synthesis, HPG incorporation with Click-iT detection", "settings": "blue light stimulation; Click-iT detection", "procedure": "FIGS. 14A-14B. […] The major function of endogenous stress granules is to bind mRNAs and halt protein synthesis until the cellular stress is removed. To test this, cells expressing G3BP1-NcVVDY50W were either exposed to blue light stimulation or not for 30 minutes and protein translation was assessed. Prior to the translation assay, cells were treated with cyclohexamide for one hour to inhibit protein synthesis and then the cyclohexamide was removed and cells were provided L-Homopropargylglycine (HPG) for one hour. HPG acts as a methionine amino acid analog and is incorporated into newly synthesized proteins. Click-iT™ chemistry was then performed to detect HPG and cells were imaged. Green signal indicates newly synthesized proteins during the time at which HPG is present in the media.\nas §3"}}, "note": "“Also recorded” adds a separate entry of the source."}
{"molecule": "C[C@@H]1C[C@@H]([C@H](O)CC2CC(=O)NC(=O)C2)C(=O)[C@@H](C)C1", "note": "[cycloheximide]", "values": [{"measurement": "endogenous stress granule formation", "setting": "[1]", "value": "attenuated"}, {"measurement": "optogenetically induced stress granule formation", "setting": "[2]", "value": "inhibited; also recorded: fail to form"}]}
{"molecule": "Cn1cc(-c2ccc3c(c2)CCN3C(=O)Cc2cccc(C(F)(F)F)c2)c2c(N)ncnc21", "note": "[GSK2606414]", "values": [{"measurement": "endogenous stress granule formation", "setting": "[1]", "value": "attenuated"}, {"measurement": "optogenetically induced stress granule formation", "setting": "[2]", "value": "no change"}]}
{"molecule": "NcVVDY50W-G3BP1: NcVivid Y50W with G3BP1 Full Length Protein, SEQ ID NO: 9", "values": [{"measurement": "dynamics / liquid-like behaviour of light induced stress granules", "setting": "HEK293 cells [3]; HEK293 cells", "value": "repeatedly formed; also recorded: decrease in number and increase in size"}, {"measurement": "duration of chronically formed stress granules with light", "setting": "HEK293 cells [3]; HEK293 cells, chronic light, no cell stressors", "value": "up to 18 hours"}, {"measurement": "colocalization of blue light induced stress granules with stress granule markers", "setting": "HEK293 cells [4]", "value": "stained positive for Ataxin-2 and TIAR; also recorded: colocalize with the key stress granule marker eIF3H"}, {"measurement": "mRNA sequestration by blue light induced stress granules", "setting": "HEK293 cells [4]", "value": "sequester cytoplasmic mRNA"}]}
{"molecule": "O=[As]O", "note": "[NaAsO2, sodium arsenite]", "values": [{"measurement": "occurrence of stress granules in the cell, on average", "setting": "stress granules", "value": 11}]}
{"molecule": "Cry2 PHR-[…]NTF-G3BP1: Cry2PHR with G3BP1 NTF2 Domain Deletion Mutation, SEQ ID NO: 94 (protein) MKMDKKTIVWFRRDLRIEDNPALAAAAHEGSVFPVFIWCPEEEGQFYPGRASRWWMKQSLAHLSQSLKALGSDLTLIKTHNTISAILDCIRVTGATKVVFNHLYDPVSLVRDHTVKEKLVERGISVQSYNGDLLYEPWEIYCEKGKPFTSFNSYWKKCLDMSIESVMLPPPWRLMPITAAAEAIWACSIEELGLENEAEKPSNALLTRAWSPGWSNADKLLNEFIEKQLIDYAKNSKKVVGNSTSLLSPYLHFGEISVRHVFQCARMKQIIWARDKNSEGEESADLFLRGIGLREYSRYICFNFPFTHEQSLLSHLRFFPWDADVDKFKAWRQGRTGYPLVDAGMRELWATGWMHNRIRVIVSSFAVKFLLLPWKWGMKYFWDTLLDADLECDILGWQYISGSIPDGHELDRLDNPALQGAKYDPEGEYIRQWLPELARLPTEWIHHPWDAPLTVLKASGVELGTNYAKPIVDIDTARELLAKAISRTREAQIMIGAAMGFVTEPQEESEEEVEEPEERQQTPEVVPDDSGTFYDQAVVSNDMEEHLEEPVAEPEPDPEPEPEQEPVSEIQEEKPEPVLEETAPEDAQKSSSPAPADIAQTVQEDLRTFSWASVTSKNLPPSGAVPVTGIPPHVVKVPASQPRPESKPESQIPPQRPQRDQRVREQRINIPPQRGPRPIREAGEQGDIEPRRMVRHPDSHQLFIGNLPHEVDKSELKDFFQSYGNVVELRINSGGKLPNFGFVVFDDSEPVQKVLSNRPIMFRGEVRLNVEEKKTRAAREGDRRDNRLRGPGGPRGGLGGGMRGPPRGGMVQKPGFGVGRGLAPRQKLIPMARRAWLEHGHSCFLCEIVIRSQFHTTYEPEA", "values": [{"measurement": "dynamics / liquid-like behaviour of light induced stress granules", "setting": "HEK293 cells [3]; HEK293 cells", "value": "exhibit the liquid-like droplet properties of endogenously formed stress granules"}, {"measurement": "time to optoSG formation", "setting": "HEK293 cells [3]; HEKs, blue light LED stimulation", "value": 15, "unit": "min"}, {"measurement": "colocalization of blue light induced stress granules with stress granule markers", "setting": "HEK293 cells [4]", "value": "colocalize with endogenous stress granule markers including PABPC1 and the 40S ribosomal component RPS3; also recorded: colocalize with mature stress granule markers Ataxin2 and eIF4G translational factors"}, {"measurement": "protein synthesis (HPG signal) with light-induced stress granules", "setting": "protein synthesis", "value": "inhibit cellular protein synthesis to a similar degree as sodium arsenite induced stress granules"}]}
